Experiments:
IRE1α* = molecular target: T1, IRE1α* (Homo sapiens, UniProt O75460); assay: In vitro kinase activity assay (IRE1α kinase inhibition); type: biochemical; details: IRE1α kinase inhibition; read-out: IC50 IRE1a
T1 construct: human IRE1α (residues 547-977, IRE1α*) was expressed in SF9 insect cells; His6 (N); made in house; host or cells: Sf9 insect cells (Bac-to-Bac baculovirus)
Procedure: A construct containing the cytosolic kinase and RNase domains of human IRE1α (residues 547-977, IRE1α*) was expressed in SF9 insect cells by using the Bac-to-Bac baculovirus expression system (Invitrogen) with a His6 tag at the N-terminus and purified with a nickel-nitriloacetic acid (Qiagen) column. To generate dP-IRE1α*, we removed basal phosphorylation sites by incubating IRE1α* with λ-PPase (New England Biolabs) at a molar ratio of 5:1 (IRE1α*: λ-PPase) in 50 mM HEPES pH 7.5, 100 mM NaCl, 1 mM MnCl2, 2 mM dithiothreitol (DTT) and 0.01% Brij 35 detergent (v/v) overnight at 4° C. Dephosphorylation was verified through western blotting using a universal phospho-protein detection agent (biotin-pIMAGO (Tymora Analytical Operations, Cat. No.: FL800) and imaged using a streptavidin-linked fluorophore.
In Vitro Kinase Activity Assay
Inhibitors (initial concentration of 10 or 60 μM, three-fold serial dilutions) were incubated with IRE1α* in cleavage buffer (20 mM HEPES, 0.05% Triton X-100 (v/v), 50 mM KCl, 1 mM MgCl2, 1 mM DTT, pH 7.5) for 30 min, followed by incubation with 10 μCi [γ^32P] ATP (3,000 Ci mmol^−1, PerkinElmer) at 23° C. for 3 hours. Samples were then spotted onto glass fiber paper (Easytab-C Glass Fiber Filter Paper, Perkin Elmer) and washed in twice with 0.5% phosphoric acid and autoradiographed using a GE Typhoon FLA 9000 Imager. Blots were quantitated using ImageQuant software. The percent inhibition was quantified by setting the background (no kinase well) as 0 and standardizing to IRE1α* without compound treatment (IRE1α*+DMSO). Dose-response curves were fit using “one-site fit log IC50” parameter using GraphPad Prism analysis software.
Compound Characterization (IC50 IRE1α Kinase Inhibition)

XBP1 mRNA splicing = XBP1 mRNA splicing in INS-1 cells conditionally overexpressing IRE1α (Dox); type: cell-based, rat; details: 3, 10 μM for 1 hour, then Dox (1 μg/mL) for 4 hours
Procedure: (§1) RNA Isolation, Quantitative Real-Time PCR, and Primers
(§2) INS-1 or isogenic IRE1α-overexpressing INS-1 cells were plated onto Poly-D-Lysine coated tissue culture plate and grown for 48 hrs. Inhibitors or DMSO were added to the media and incubated for 1 hour at 37° C. with 5% CO2 prior to addition of ER stress agents or Dox as indicated. RNA was isolated from whole cells using either QIAGEN RNeasy Mini kits or Trizol (Invitrogen) and reverse transcribed as above to obtain total cDNA. Then, XBP-1 primers were used to amplify an XBP-1 amplicon spanning the 26 nt intron from the cDNA samples in a regular 3-step PCR. Thermal cycles were: 5 min at 95° C., 30 cycles of 30 s at 95° C., 30 s at 60° C., and 1 min at 72° C., followed by 72° C. for 15 min, and hold at 4° C. Primers used for XBP-1 mRNA splicing were as follows: sense primer XBP1.3 S (5′ […]-3′ (SEQ ID NO:2)) and antisense primer XBP1.2AS (5′-[…]-3′ (SEQ ID NO:3)). PCR fragments were then digested by PstI, resolved on 3% agarose gels, stained with EtBr and quantified by densitometry using ImageJ (NIH). For standard mRNA detection, generally […] total RNA was reverse transcribed using the QuantiTect Reverse Transcription Kit (QIAGEN). For qPCR, we used SYBR green (QIAGEN) and StepOnePlus Real-Time PCR System (Applied Biosystems). Thermal cycles were: 5 min at 95° C., 40 cycles of 15 sec at 95° C., 30 sec at 60° C. Gene expression levels were normalized to Beta Actin. Primers used for qPCR of RIDD targets were as follows: Beta Actin Fwd: 5′-[…]-3′ (SEQ ID NO:4), Beta Actin Rev: 5′-[…]-3′ (SEQ ID NO:5), Insulin 1 Fwd: 5′-GTCCTCTGGGAGCCCAAG-3′ (SEQ ID NO:6), Insulin 1 Rev: 5′-ACAGAGCCTCCACCAGG-3′ (SEQ ID NO:7), Insulin 2 Fwd: 5′-ATCCTCTGGGAGCCCCGC-3′ (SEQ ID NO:8), Insulin 2 Rev: 5′-AGAGAGCTTCCACCAAG-3′ (SEQ ID NO:9), Blos1 Fwd: 5′-[…]-3′ (SEQ ID NO:10), and Blos1 Rev: 5′-[…]-3′ (SEQ ID NO:11).
(§3) RNA was extracted using Trizol (Invitrogen), DNaseI treated, and cDNA products encompassing the intron amplified by QuantiTect Reverse Transcription Kit (Qiagen). sense Primer rXBP Forward (5′-[…]-3′ (SEQ ID NO:12)) and antisense primer rXBP Reverse (5′-[…]-3′ (SEQ ID NO:13)) were used. PCR fragments were digested by PstI, resolved on 3% agarose gels, stained with EtBr, and quantified by densitometry.
as §3, with “XBP1 splicing for FIGS. 33A-33F: RNA” for “RNA”, “(Invitrogen),” for “(Invitrogen), DNaseI treated, and”, “(Qiagen). Sense” for “(Qiagen). sense”, “rXBP splicing” for “rXBP”

[1] = test system: RIDD (IRE1α-dependent mRNA decay); assay: Real-time PCR of RIDD mRNA targets in INS-1 cells overexpressing IRE1α (Dox); type: cell-based, rat; details: 3, 10 μM for 1 hour, then Dox (5 ng/mL) for 24 hours
Procedure: as §1, §2
Real-Time PCR (Q-PCR) used SYBR green and Step OnePlus Real-Time PCR System (Applied Biosystems). Thermal cycles were: 5 min at 95° C., 40 cycles of 15 s at 95° C., 30 s at 60° C. Gene expression levels were normalized to GAPDH. Q-PCR Sense/antisense primers used: Rat GAPDH, 5′-[…]-3′ (SEQ ID NO:14) and 5′-[…]-3′ (SEQ ID NO:15); Rat Ins1, 5′-GTCCTCTGGGAGCCCAAG-3′ (SEQ ID NO:6) and 5′-ACAGAGCCTCCACCAGG-3′ (SEQ ID NO:7); Rat Pdia4, 5′-CGTCTCGCCCTGATTCGT-3′ (SEQ ID NO:16) and 5′-[…]-3′ (SEQ ID NO:17); Rat Blos1, 5′-[…]-3′ (SEQ ID NO:18) and 5′-TGTCCAGTTCGATGCTCCG-3′ (SEQ ID NO:19).
Real-time PCR for FIGS. 34A-34F: Real-Time PCR (Q-PCR) used SYBR green and Step OnePlus Real-Time PCR System (Applied Biosystems). Thermal cycles were: 5 min at 95° C., 40 cycles of 15 s at 95° C., 30 s at 60° C. Gene expression levels were normalized to GAPDH. Q-PCR Sense/antisense primers used: Rat GAPDH, 5′-[…]-3′ (SEQ ID NO:20) and 5′-[…]-3′ (SEQ ID NO:21); Rat Ins1, 5′-GTCCTCTGGGAGCCCAAG-3′ (SEQ ID NO:6) and 5′-ACAGAGCCTCCACCAGG-3′ (SEQ ID NO:7); Rat Ins2, 5′-ATCCTCTGGGAGCCCCGC-3′ (SEQ ID NO:8) and 5′-AGAGAGCTTCCACCAAG-3′ (SEQ ID NO:9); Rat Pdia4, 5′-[…]-3′(SEQ ID NO:22) and 5′-[…]-3′ (SEQ ID NO:23); Rat Blos1, 5′-[…]-3′ (SEQ ID NO:18) and 5′-TGTCCAGTTCGATGCTCCG-3′ (SEQ ID NO:19).

T1 sequence (O75460 547-977): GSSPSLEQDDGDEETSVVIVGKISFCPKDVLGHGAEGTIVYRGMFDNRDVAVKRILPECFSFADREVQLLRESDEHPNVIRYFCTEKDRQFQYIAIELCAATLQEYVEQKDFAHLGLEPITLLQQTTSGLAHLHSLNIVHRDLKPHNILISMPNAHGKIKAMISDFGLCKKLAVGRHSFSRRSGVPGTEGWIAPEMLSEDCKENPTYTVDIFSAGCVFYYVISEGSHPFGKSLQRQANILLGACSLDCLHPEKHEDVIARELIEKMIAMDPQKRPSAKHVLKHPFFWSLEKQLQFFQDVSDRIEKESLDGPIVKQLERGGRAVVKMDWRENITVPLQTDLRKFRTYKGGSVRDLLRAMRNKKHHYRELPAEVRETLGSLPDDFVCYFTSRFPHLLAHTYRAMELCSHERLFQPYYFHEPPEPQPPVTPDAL

## Cc1cc(NS(=O)(=O)C2(C)CC2)c2ccccc2c1Oc1ncccc1-c1ccnc(N[C@@H]2CNC[C@@H](F)C2)n1 [LBC-413, N-(4-((3-(2-(((3S,5S)-5-fluoropiperidin-3-yl)amino)pyrimidin-4-yl)pyridin-2-yl)oxy)-3-methylnaphthalen-1-yl)-1-methylcyclopropane-1-sulfonamide]
IRE1α*
  IC50: 32 nM
XBP1 mRNA splicing
  % spliced XBP1 amplicons: do not suppress XBP mRNA splicing
[1]
  RIDD mRNA targets (Ins1, Ins2, Pdia4): block RIDD

Source: patent US11884649B2, “IRE1α inhibitors and uses thereof” (The Regents of the University of California, priority 2020, dated 2024)
